Measured values reported in patent US7192746B2, “α-Isomaltosyltransferase, process for producing the same and use thereof” (Kabushiki Kaisha Hayashibara Seibutsu Kagaku Kenkyujo, priority 2000, dated 2007).

How the values were obtained:
Assay type in all cases: biochemical
[1] = system: α-isomaltosyl-transferring enzyme from Bacillus globisporus C9; assay: Influence of metal ions on enzyme activity; conditions: enzyme of Strain C9; for Relative activity: 1 mM metal ion
Description: (§1) The activity of the enzyme was assayed by dissolving panose in 100 mM acetate buffer (pH 6.0) to give a concentration of two percent (w/v) for a substrate solution, adding a 0.5 ml of an enzyme solution to a 0.5 ml of the substrate solution, enzymatically reacting the mixture solution at 35° C. for 30 min, suspending the reaction mixture by boiling for 10 min, and quantifying glucose by the glucose oxidation method. One unit activity of the α-isomaltosyl-transferring enzyme is defined as the enzyme amount that forms one micromole of glucose per minute under the above enzymatic reaction conditions. Throughout the specification, the enzymatic activity of the α-isomaltosyl-transferring enzyme means the unit(s) assayed as above.
The influence of metal ions on the activity of α-isomaltosyl-transferring enzyme was examined in the presence of 1 mM of each metal-ion according to the assay for the enzyme activity.

[2] = system: α-isomaltosyl-transferring enzyme from Arthrobacter ramosus S1; assay: Influence of metal ions on enzyme activity; conditions: enzyme of Strain S1; for Relative activity: 1 mM metal ion
Description: as §1
(§2) The influence of metal ions on the activity of α-isomaltosyl-transferring enzyme was examined in the presence of 1 mM of a metal ion according to the assay for the enzyme activity.

[3] = system: α-isomaltosyl-transferring enzyme from Bacillus globisporus C11; assay: Influence of metal ions on enzyme activity; conditions: enzyme of Strain C11; for Relative activity: 1 mM metal ion
Description: as §1, §2

[4] = system: α-isomaltosyl-transferring enzyme from Bacillus globisporus N75; conditions: enzyme of Strain N75; for Relative activity: 1 mM metal ion
Description: as §1, §2

[5] = system: α-isomaltosyl-transferring enzyme from Arthrobacter globiformis A19; assay: Action on saccharides (substrates, TLC); parameters: key: −: there was found no substrate change before and after the enzymatic reaction; +: there were found both the reduction of substrate and the formation of cyclotetrasaccharide after the enzymatic reaction; conditions: partially purified enzyme, 2 units/g substrate, 2% (w/v) substrate, 30° C., pH 6.0, 24 hours
Outline: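 Each candidate saccharide, from malto- and isomalto-oligosaccharides to cyclodextrins, starch, pullulan and dextran, was prepared at 2% (w/v). Two units/g substrate of enzyme were added, then the mixture was held at pH 6.0, 30° C., 24 hours. Samples were then analysed by silica gel TLC.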

[6] = system: α-isomaltosyl-transferring enzyme from Arthrobacter ramosus S1; assay: Action on saccharides (substrates, TLC); parameters: key: −: there was found no substrate change before and after the enzymatic reaction; +: there were found both the reduction of substrate and the formation of cyclotetrasaccharide after the enzymatic reaction; conditions: 2 units/g substrate, 2% (w/v) substrate, 30° C., pH 6.0, 24 hours
Outline: (§3)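 We incubate purified enzyme (2 units/g substrate) with 2% (w/v) saccharide for 24 h at 30° C., pH 6.0. Pre- and post-reaction samples are then compared on silica TLC.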

[7] = system: α-isomaltosyl-transferring enzyme from Bacillus globisporus C11; assay: Action on saccharides (substrates, TLC); parameters: key: −: there was found no substrate change before and after the enzymatic reaction; +: there were found both the reduction of substrate and the formation of cyclotetrasaccharide after the enzymatic reaction; conditions: 2 units/g substrate, 2% (w/v) substrate, 30° C., pH 6.0, 24 hours
Outline: as §3

[8] = system: α-isomaltosyl-transferring enzyme from Bacillus globisporus C9; assay: Action on saccharides (substrates, TLC); parameters: key: −: there was found no substrate change before and after the enzymatic reaction; +: there were found both the reduction of substrate and the formation of cyclotetrasaccharide after the enzymatic reaction; conditions: 2 units/g substrate, 2% (w/v) substrate, 30° C., pH 6.0, 24 hours
Outline: as §3

[9] = system: α-isomaltosyl-transferring enzyme from Bacillus globisporus N75; assay: Action on saccharides (substrates, TLC); parameters: key: −: there was found no substrate change before and after the enzymatic reaction; +: there were found both the reduction of substrate and the formation of cyclotetrasaccharide after the enzymatic reaction; conditions: 2 units/g substrate, 2% (w/v) substrate, 30° C., pH 6.0, 24 hours
Outline: as §3

[10] = system: α-isomaltosyl-transferring enzyme from Arthrobacter globiformis A19; assay: Specificity to transferring acceptor; conditions: partially purified enzyme, panose as saccharide donor, 10 units/g substrate, 3.2% (w/v), 30° C., pH 6.0, 24 hours
Outline: (§4)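 Candidate acceptor saccharides mixed with panose donor at equal concentration, 10 units/g substrate enzyme, total saccharide 3.2% (w/v), reacted 24 h at 30 °C, pH 6.0. Transfer product formation scored positive/negative by GLC (mono-/disaccharides) or HPLC (tri- and higher).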

[11] = system: α-isomaltosyl-transferring enzyme from Arthrobacter ramosus S1; assay: Specificity to transferring acceptor; conditions: panose as saccharide donor, 10 units/g substrate, 3.2% (w/v), 30° C., pH 6.0, 24 hours
Outline: as §4

[12] = system: α-isomaltosyl-transferring enzyme from Bacillus globisporus C11; assay: Specificity to transferring acceptor; conditions: panose as saccharide donor, 10 units/g substrate, 3.2% (w/v), 30° C., pH 6.0, 24 hours
Outline: as §4

[13] = system: α-isomaltosyl-transferring enzyme from Bacillus globisporus C9; assay: Specificity to transferring acceptor; conditions: panose as saccharide donor, 10 units/g substrate, 3.2% (w/v), 30° C., pH 6.0, 24 hours
Outline: as §4

[14] = system: α-isomaltosyl-transferring enzyme from Bacillus globisporus N75; assay: Specificity to transferring acceptor; conditions: panose as saccharide donor, 10 units/g substrate, 3.2% (w/v), 30° C., pH 6.0, 24 hours
Outline: as §4

For `[Ca+2]` [Ca^2+], the Relative activity [1] was 101%, the “Effect on enzyme activity” value ([1]; 1 mM) was “neither activated” and the Relative activity [2] was 103%. For the same molecule, the “Effect on enzyme activity” value ([2]; 1 mM) was “neither activated”, the Relative activity [3] was 91% and the “Effect on enzyme activity” value ([3]; 1 mM) was “neither activated”. For the same molecule, the Relative activity [4] was 100% and the “Effect on enzyme activity” value ([4]; 1 mM) was “neither activated”.
`[Mg+2]` [Mg^2+] showed a Relative activity [2] of 99%, a Relative activity [3] of 91% and a Relative activity [4] of 95%.
`[Mn+2]` [Mn^2+] gave a Relative activity [1] of 106%, a Relative activity [3] of 93% and a Relative activity [4] of 101%.
For `[Fe+2]` [Fe^2+], the Relative activity [1] was 96%, the Relative activity ([1]; listed as Fe^3+) was 105% and the Relative activity [2] was 105%. It also gave a Relative activity ([2]; listed as Fe^3+) of 75%.
maltotriose was tested, and the “Enzymatic action for forming cyclotetrasaccharide, Enzyme of Strain A19” value (“Enzymatic action … of Strain A19” for short) [5] was “−”, the “Enzymatic action for forming cyclotetrasaccharide, Enzyme of Strain S1” value (shortened to “Enzymatic action … of Strain S1”) [6] was “−” and the “Enzymatic action for forming cyclotetrasaccharide, Enzyme of Strain C11” value (shortened to “Enzymatic action … of Strain C11”) [7] was “−”. For the same molecule, the “Enzymatic action for forming cyclotetrasaccharide, Enzyme of Strain C9” value (“Enzymatic action … of Strain C9” below) [8] was “−”, the “Enzymatic action for forming cyclotetrasaccharide, Enzyme of Strain N75” value (“Enzymatic action … of Strain N75” for short) [9] was “−” and the “Product of transferring reaction, Enzyme of Stain A19” value (shortened to “Product … of Stain A19”) [10] was “+ (a saccharide-transferred product was formed in an amount of over one percent but below 10% to the total sugars)”. The “Product of transferring reaction, Enzyme of Strain S1” value (from here on “Product … of Strain S1”) [11] was “++ (a saccharide-transferred product was formed in an amount of over 10% to the total sugars)”, the “Product of transferring reaction, Enzyme of Strain C11” value (“Product … of Strain C11” for short) [12] was “+ (a saccharide-transferred product was formed in an amount of over one percent but below 10% to the total sugars)” and the “Product of transferring reaction, Enzyme of Strain C9” value (from here on “Product … of Strain C9”) [13] was “+ (a saccharide-transferred product was formed in an amount of over one percent but below 10% to the total sugars)”. The “Product of transferring reaction, Enzyme of Strain N75” value (“Product … of Strain N75” for short) [14] was “+ (a saccharide-transferred product was formed in an amount of over one percent but below 10% to the total sugars)”.
maltopentaose was tested, and the “Enzymatic action … of Strain A19” value [5] was “−”, the “Enzymatic action … of Strain S1” value [6] was “−” and the “Enzymatic action … of Strain C11” value [7] was “−”. For the same molecule, the “Enzymatic action … of Strain C9” value [8] was “−”, the “Enzymatic action … of Strain N75” value [9] was “−” and the “Product … of Stain A19” value [10] was “+ (a saccharide-transferred product was formed in an amount of over one percent but below 10% to the total sugars)”. For the same molecule, the “Product … of Strain S1” value [11] was “± (a saccharide-transferred product formed in an amount of less than one percent to the total sugars)”, the “Product … of Strain C11” value [12] was “+ (a saccharide-transferred product was formed in an amount of over one percent but below 10% to the total sugars)” and the “Product … of Strain C9” value [13] was “+ (a saccharide-transferred product was formed in an amount of over one percent but below 10% to the total sugars)”. The “Product … of Strain N75” value [14] was “± (a saccharide-transferred product formed in an amount of less than one percent to the total sugars)”.
In the case of `OC[C@H]1O[C@H](O[C@H]2[C@H](O)[C@@H](O)[C@@H](OC[C@H]3OC(O)[C@H](O)[C@@H](O)[C@@H]3O)O[C@@H]2CO)[C@H](O)[C@@H](O)[C@@H]1O` (some centres unmarked) [Isopanose, isopanose], the “Enzymatic action … of Strain A19” value [5] is reported as “−”, the “Enzymatic action … of Strain S1” value [6] is reported as “−” and the “Enzymatic action … of Strain C11” value [7] is reported as “−”. The “Enzymatic action … of Strain C9” value [8] was “−”, the “Enzymatic action … of Strain N75” value [9] was “−” and the “Product … of Stain A19” value [10] was “+ (a saccharide-transferred product was formed in an amount of over one percent but below 10% to the total sugars)”. The “Product … of Strain S1” value [11] was “+ (a saccharide-transferred product was formed in an amount of over one percent but below 10% to the total sugars)”, the “Product … of Strain C11” value [12] was “+ (a saccharide-transferred product was formed in an amount of over one percent but below 10% to the total sugars)” and the “Product … of Strain C9” value [13] was “+ (a saccharide-transferred product was formed in an amount of over one percent but below 10% to the total sugars)”. For the same molecule, the “Product … of Strain N75” value [14] was “+ (a saccharide-transferred product was formed in an amount of over one percent but below 10% to the total sugars)”.
`OC[C@H]1O[C@@H](O[C@H]2O[C@H](CO)[C@@H](O)[C@H](O)[C@H]2O)[C@H](O)[C@@H](O)[C@@H]1O` [α,β-trehalose] was tested, and the “Enzymatic action … of Strain A19” value [5] was “−”, the “Enzymatic action … of Strain S1” value [6] was “−” and the “Enzymatic action … of Strain C11” value [7] was “−”. For the same molecule, the “Enzymatic action … of Strain C9” value [8] was “−”, the “Enzymatic action … of Strain N75” value [9] was “−” and the “Product … of Stain A19” value [10] was “++ (a saccharide-transferred product was formed in an amount of over 10% to the total sugars)”. The “Product … of Strain S1” value [11] was “++ (a saccharide-transferred product was formed in an amount of over 10% to the total sugars)”, the “Product … of Strain C11” value [12] was “++ (a saccharide-transferred product was formed in an amount of over 10% to the total sugars)” and the “Product … of Strain C9” value [13] was “++ (a saccharide-transferred product was formed in an amount of over 10% to the total sugars)”. For the same molecule, the “Product … of Strain N75” value [14] was “++ (a saccharide-transferred product was formed in an amount of over 10% to the total sugars)”.
With `OC[C@H]1O[C@H](O[C@H]2[C@H](O)[C@@H](O)[C@H](O)O[C@@H]2CO)[C@H](O)[C@@H](O)[C@@H]1O` [Maltose, maltose] the “Enzymatic action … of Strain A19” value [5] was “−”, the “Enzymatic action … of Strain S1” value [6] was “−” and the “Enzymatic action … of Strain C11” value [7] was “−”. The “Enzymatic action … of Strain C9” value [8] was “−”, the “Enzymatic action … of Strain N75” value [9] was “−” and the “Product … of Stain A19” value [10] was “+ (a saccharide-transferred product was formed in an amount of over one percent but below 10% to the total sugars)”. The “Product … of Strain S1” value [11] was “+ (a saccharide-transferred product was formed in an amount of over one percent but below 10% to the total sugars)”, the “Product … of Strain C11” value [12] was “+ (a saccharide-transferred product was formed in an amount of over one percent but below 10% to the total sugars)” and the “Product … of Strain C9” value [13] was “+ (a saccharide-transferred product was formed in an amount of over one percent but below 10% to the total sugars)”. The “Product … of Strain N75” value [14] was “+ (a saccharide-transferred product was formed in an amount of over one percent but below 10% to the total sugars)”.
